Holding throughout (assay type): in vivo
In assay [1] the test system is Kochia (Kochia scoparia). The assay can be described thus: Test A preemergence. The following applies: Bassia scoparia, pre-emergence, 240 h; for pest or weed control at 125 g/ha: 125 g ai/ha; for pest or weed control at 500 g/ha: 500 g ai/ha. In outline:
(§1)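 Visual injury scores from 0, no effect, to 100, complete control, were assigned versus untreated controls roughly 10 d after treatment in the greenhouse. Test chemicals, formulated with surfactant in a non-phytotoxic solvent, were applied to planted seeds as a preemergence soil spray or postemergence to one- to two-leaf plants 2 to 10 cm tall, in loam–sand soil.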

In assay [2] the test system is barnyardgrass (Echinochloa crus-galli). The assay can be described thus: Test A preemergence. The following applies: Echinochloa crus-galli, pre-emergence, 240 h; for pest or weed control at 125 g/ha: 125 g ai/ha; for pest or weed control at 500 g/ha: 500 g ai/ha, visual injury rating about 10 d after treatment, 0 to 100 scale (0 no effect, 100 complete control). In outline:
as §1

Assay [3] concerns giant foxtail (Setaria faberii). The assay can be described thus: Test A preemergence. The settings on record: Setaria faberi, pre-emergence, 240 h; for pest or weed control at 125 g/ha: 125 g ai/ha; for pest or weed control at 500 g/ha: 500 g ai/ha. The gist of the method:
as §1

Assay [4] deals with pigweed (Amaranthus retroflexus). The assay can be described thus: Test A preemergence. The settings on record: Amaranthus retroflexus, pre-emergence, 240 h; for pest or weed control at 125 g/ha: 125 g ai/ha; for pest or weed control at 500 g/ha: 500 g ai/ha.
Assay [5] deals with ragweed (common ragweed, Ambrosia elatior). The assay can be described thus: Test A preemergence. The following applies: Ambrosia artemisiifolia, pre-emergence, 240 h; for pest or weed control at 125 g/ha: 125 g ai/ha; for pest or weed control at 500 g/ha: 500 g ai/ha. In outline: as §1
Assay [6] has as its system ryegrass, Italian (Italian ryegrass, Lolium multiflorum). The assay can be described thus: Test A preemergence. The settings on record: Lolium multiflorum, pre-emergence, 240 h; for pest or weed control at 125 g/ha: 125 g ai/ha; for pest or weed control at 500 g/ha: 500 g ai/ha. In outline:
as §1

The test system of assay [7] is Galium (catchweed bedstraw, Galium aparine). The assay can be described thus: Test A postemergence. The following applies: Galium, post-emergence, 240 h, postemergence; for pest or weed control at 125 g/ha: 125 g ai/ha, visual injury on 0 to 100 scale (0 no effect, 100 complete control); for pest or weed control at 500 g/ha: 500 g ai/ha. In outline:
as §1

Assay [8] deals with barnyardgrass (Echinochloa crus-galli). The assay can be described thus: Test A postemergence. The settings on record: Echinochloa crus-galli, post-emergence, 240 h, postemergence; for pest or weed control at 125 g/ha: 125 g ai/ha, visual injury on 0 to 100 scale (0 no effect, 100 complete control); for pest or weed control at 500 g/ha: 500 g ai/ha. The gist of the method: as §1

For assay [9], the system named is corn (Zea mays). The assay can be described thus: Test A postemergence. The following applies: Zea mays, post-emergence, 240 h, postemergence; for plant injury at 125 g/ha: 125 g ai/ha, visual injury on 0 to 100 scale (0 no effect, 100 complete control). In outline:
as §1

In assay [10] the test system is ragweed (common ragweed, Ambrosia elatior). The assay can be described thus: Test A postemergence. The following applies: Ambrosia artemisiifolia, post-emergence, 240 h, postemergence, read-out: Ragweed plant response rating; for pest or weed control at 125 g/ha: 125 g ai/ha, visual injury on 0 to 100 scale (0 no effect, 100 complete control), approx. 10 d. The gist of the method: as §1

Assay [11] concerns barnyardgrass (Echinochloa crus-galli). The assay can be described thus: Test B flooded paddy test. The following applies: Echinochloa crus-galli, 250 g ai/ha, Flood; 0 to 100 scale where 0 is no effect and 100 is complete control; read-out: Barnyardgrass plant response rating. In outline:
(§2)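 Percent control, visually estimated after 13–15 d in the greenhouse on a 0–100 basis, compares treated pots with untreated ones; compound was put into paddy water 3 cm above the soil when plants had two leaves.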

Assay [12] relates to ducksalad (Heteranthera limosa). The assay can be described thus: Test B flooded paddy test. The settings on record: Heteranthera limosa, 250 g ai/ha, Flood; 0 to 100 scale where 0 is no effect and 100 is complete control; read-out: Ducksalad plant response rating. In outline:
as §2

Assay [13] relates to rice (Oryra sativa). The assay can be described thus: Test B flooded paddy test. The settings on record: Oryza sativa, 250 g ai/ha, Flood; 0 to 100 scale where 0 is no effect and 100 is complete control; read-out: Rice plant response rating. In outline:
as §2

In assay [14] the test system is sedge, umbrella (small-flower umbrella sedge, Cyperus difformis). The assay can be described thus: Test B flooded paddy test. The following applies: Cyperus difformis, 250 g ai/ha, Flood; 0 to 100 scale where 0 is no effect and 100 is complete control; read-out: Sedge, Umbrella plant response rating. The gist of the method: as §2
The mark [15] stands for this setting: preemergence, read-out: Barnyardgrass plant response rating.
Where [16] appears, read: approx. 10 d, read-out: Galium plant response rating.
Where [17] appears, read: approx. 10 d, read-out: Barnyardgrass plant response rating.
The mark [18] stands for this setting: approx. 10 d, read-out: Corn plant response rating.

Molecules are shown by their SMILES. Like-named read-outs stand apart in the source and are kept apart here.

With `O=C(Nc1ccccc1C(F)(F)F)[C@H]1C(=S)NC[C@@H]1c1ccc(C(F)(F)F)cc1` (racemic) [Compound 1049], the pest or weed control at 125 g/ha is 30% in assay [1] (Preemergence, visual injury rating after approximately 10 d, read-out: Kochia plant response rating (0 to 100 scale, 0 is no effect, 100 is complete control)); 30% in assay [2] (Preemergence, visual injury rating after approximately 10 d, read-out: Barnyardgrass plant response rating (0 to 100 scale, 0 is no effect, 100 is complete control)); 80% in assay [3] (Preemergence, visual injury rating after approximately 10 d, read-out: Foxtail, Giant plant response rating (0 to 100 scale, 0 is no effect, 100 is complete control)); 0% in assay [4] (Preemergence, visual injury rating after approximately 10 d, read-out: Pigweed plant response rating (0 to 100 scale, 0 is no effect, 100 is complete control)); 20% in assay [5] (Preemergence, visual injury rating after approximately 10 d, read-out: Ragweed plant response rating (0 to 100 scale, 0 is no effect, 100 is complete control)); 0% in assay [6] (Preemergence, visual injury rating after approximately 10 d, read-out: Ryegrass, Italian plant response rating (0 to 100 scale, 0 is no effect, 100 is complete control)). Besides, the results for the pest or weed control at 125 g/ha in assay [7] (setting [16]), in assay [8] (setting [17]) and in assay [10] were 0%, 30% and 0%, respectively. Besides, the pest or weed control at 500 g/ha is 70% in assay [1] (preemergence, visual injury rating about 10 d after treatment, 0 to 100 scale (0 no effect, 100 complete control), read-out: Kochia plant response rating); 70% in [2] (setting [15]); 90% in assay [3] (preemergence, visual injury rating about 10 d after treatment, 0 to 100 scale (0 no effect, 100 complete control), read-out: Foxtail, Giant plant response rating); 60% in assay [4] (preemergence, visual injury rating about 10 d after treatment, 0 to 100 scale (0 no effect, 100 complete control), read-out: Pigweed plant response rating); 40% in [5] (preemergence, visual injury rating about 10 d after treatment, 0 to 100 scale (0 no effect, 100 complete control), read-out: Ragweed plant response rating); 30% in assay [6] (preemergence, visual injury rating about 10 d after treatment, 0 to 100 scale (0 no effect, 100 complete control), read-out: Ryegrass, Italian plant response rating). In addition, the pest or weed control at 500 g/ha in assay [7] (visual injury, 0 to 100 scale (0 no effect, 100 complete control), approx. 10 d, read-out: Plant response rating, Galium) is 40%; in assay [8] (visual injury, 0 to 100 scale (0 no effect, 100 complete control), approx. 10 d, read-out: Plant response rating, Barnyardgrass), 50%. Further, the plant injury at 125 g/ha in assay [9] (setting [18]) was determined as 0%. This molecule also gave a Corn plant response rating (crop injury, 0 = no effect, 100 = complete kill) at 500 g/ha in assay [9] (500 g ai/ha, visual injury, 0 to 100 scale (0 no effect, 100 complete control), approx. 10 d) of 0%. The pest or weed control at 250 g/ha in assay [11] amounted to 20%; in assay [12], 70%; in [13], 0%; in assay [14], 0%.
As for `CN1C[C@H](c2cscn2)[C@@H](C(=O)Nc2ccccc2F)C1=O` [Compound 1112], the pest or weed control at 125 g/ha in assay [1] (preemergence, 0 to 100 scale where 0 is no effect and 100 is complete control, approx. 10 d, read-out: Kochia plant response rating) was determined as 0%; in assay [2] (preemergence, 0 to 100 scale where 0 is no effect and 100 is complete control, approx. 10 d, read-out: Barnyardgrass plant response rating), 0%; in [3] (preemergence, 0 to 100 scale where 0 is no effect and 100 is complete control, approx. 10 d, read-out: Foxtail, Giant plant response rating) it was 0%; in assay [4] (preemergence, 0 to 100 scale where 0 is no effect and 100 is complete control, approx. 10 d, read-out: Pigweed plant response rating), 0%; in assay [5] (preemergence, 0 to 100 scale where 0 is no effect and 100 is complete control, approx. 10 d, read-out: Ragweed plant response rating), 0%; in assay [6] (preemergence, 0 to 100 scale where 0 is no effect and 100 is complete control, approx. 10 d, read-out: Ryegrass, Italian plant response rating) it was 0%. The pest or weed control at 125 g/ha in assay [7] (setting [16]), in [8] (setting [17]) and in assay [10] was 0% each time. Besides, the pest or weed control at 500 g/ha is 0% in assay [1] (preemergence, 0 to 100 scale where 0 is no effect and 100 is complete control, read-out: Kochia plant response rating); 0% in assay [2] (setting [15]); 0% in [3] (preemergence, 0 to 100 scale where 0 is no effect and 100 is complete control, read-out: Foxtail, Giant plant response rating); 0% in assay [4] (preemergence, 0 to 100 scale where 0 is no effect and 100 is complete control, read-out: Pigweed plant response rating); 0% in assay [5] (preemergence, 0 to 100 scale where 0 is no effect and 100 is complete control, read-out: Ragweed plant response rating); 0% in assay [6] (preemergence, 0 to 100 scale where 0 is no effect and 100 is complete control, read-out: Ryegrass, Italian plant response rating). The pest or weed control at 500 g/ha in assay [7] (0 to 100 scale, 0 is no effect, 100 is complete control, read-out: Galium plant response rating) was determined as 0%; in [8] (0 to 100 scale, 0 is no effect, 100 is complete control, read-out: Barnyardgrass plant response rating), 0%; in assay [10] (500 g ai/ha, 0 to 100 scale, 0 is no effect, 100 is complete control), 0%. In addition, the plant injury at 125 g/ha in assay [9] (setting [18]) was found to be 0%. In addition, the plant injury at 500 g/ha in assay [9] (500 g ai/ha, 0 to 100 scale, 0 is no effect, 100 is complete control, read-out: Corn plant response rating) was determined as 0%. The pest or weed control at 250 g/ha stood at 0% in [11], 0% in [12], 15% in [13] and 40% in assay [14].

(Values after patent US12077503B2, “Substituted cyclic amides and their use as herbicides” (FMC CORPORATION, priority 2015, dated 2024).)
